Source: ChEMBL document CHEMBL4825682, “Discovery of novel purinylthiazolylethanone derivatives as anti-Candida albicans agents through possible multifaceted mechanisms” (Eur J Med Chem, 2021)
≈ marks a conversion by molar mass, not a printed value.

Key:
[1] = Hemolytic activity in human RBC; assay type: cell-based, Erythrocyte; conditions: human red blood cells (erythrocytes)
Candida albicans [2] = test: Antifungal activity against Candida albicans ATCC 90023 assessed as fungal growth inhibition by CLSI protocol based microbroth dilution method; assay type: functional
Candida parapsilosis = test: Antifungal activity against Candida parapsilosis ATCC 22019 assessed as fungal growth inhibition by CLSI protocol based microbroth dilution method; assay type: functional; conditions: Lodderomyces parapsilosis
Candida albicans [3] = test: Antifungal activity against Candida albicans assessed as fungal growth inhibition by CLSI protocol based microbroth dilution method; assay type: functional
Aspergillus fumigatus = test: Antifungal activity against Aspergillus fumigatus assessed as fungal growth inhibition by CLSI protocol based microbroth dilution method; assay type: functional
Candida tropicalis = test: Antifungal activity against Candida tropicalis assessed as fungal growth inhibition by CLSI protocol based microbroth dilution method; assay type: functional

MIC (Candida albicans [2])	MIC (Candida parapsilosis)	MIC (Candida albicans [3])	MIC (Aspergillus fumigatus)	MIC (Candida tropicalis)	SMILES	HC50 [1]
128 µg/mL (≈ 458 µM)	64 µg/mL (≈ 229 µM)	64 µg/mL (≈ 229 µM)	128 µg/mL (≈ 458 µM)	32 µg/mL (≈ 114 µM)	O=C(Cn1cnc2c(Cl)ncnc21)c1nccs1	> 256 µg/mL
2 µg/mL (≈ 4.41 µM)	256 µg/mL (≈ 564 µM)	256 µg/mL (≈ 564 µM)	64 µg/mL (≈ 141 µM)	256 µg/mL (≈ 564 µM)	O=C(Cn1cnc2c(N3CCN(Cc4ccccc4Cl)CC3)ncnc21)c1nccs1	> 256 µg/mL
8 µg/mL (≈ 23.4 µM)	256 µg/mL (≈ 748 µM)	256 µg/mL (≈ 748 µM)	64 µg/mL (≈ 187 µM)	256 µg/mL (≈ 748 µM)	O=C(Cn1cnc2c(N3CCCCCC3)ncnc21)c1nccs1	> 256 µg/mL
128 µg/mL (≈ 282 µM)	64 µg/mL (≈ 141 µM)	32 µg/mL (≈ 70.5 µM)	64 µg/mL (≈ 141 µM)	4 µg/mL (≈ 8.81 µM)	O=C(Cn1cnc2c(N3CCN(Cc4ccc(Cl)cc4)CC3)ncnc21)c1nccs1	> 256 µg/mL
128 µg/mL (≈ 276 µM)	64 µg/mL (≈ 138 µM)	8 µg/mL (≈ 17.2 µM)	32 µg/mL (≈ 68.9 µM)	64 µg/mL (≈ 138 µM)	O=C(Cn1cnc2c(N3CCN(Cc4ccc([N+](=O)[O-])cc4)CC3)ncnc21)c1nccs1	> 256 µg/mL
256 µg/mL (≈ 580 µM)	16 µg/mL (≈ 36.2 µM)	2 µg/mL (≈ 4.53 µM)	64 µg/mL (≈ 145 µM)	16 µg/mL (≈ 36.2 µM)	CCCCCCCCN1CCN(c2ncnc3c2ncn3CC(=O)c2nccs2)CC1	> 256 µg/mL
2 µg/mL (≈ 6.05 µM)	2 µg/mL (≈ 6.05 µM)	64 µg/mL (≈ 194 µM)	64 µg/mL (≈ 194 µM)	32 µg/mL (≈ 96.9 µM)	O=C(Cn1cnc2c(N3CCOCC3)ncnc21)c1nccs1	> 256 µg/mL
32 µg/mL (≈ 102 µM)	32 µg/mL (≈ 102 µM)	16 µg/mL (≈ 50.9 µM)	32 µg/mL (≈ 102 µM)	64 µg/mL (≈ 204 µM)	O=C(Cn1cnc2c(N3CCCC3)ncnc21)c1nccs1	> 256 µg/mL
16 µg/mL (≈ 37.2 µM)	64 µg/mL (≈ 149 µM)	4 µg/mL (≈ 9.29 µM)	16 µg/mL (≈ 37.2 µM)	64 µg/mL (≈ 149 µM)	CCOC(=O)CN1CCN(c2ncnc3c2ncn3C/C(=N/O)c2nccs2)CC1	> 256 µg/mL
32 µg/mL (≈ 68.9 µM)	128 µg/mL (≈ 276 µM)	16 µg/mL (≈ 34.4 µM)	64 µg/mL (≈ 138 µM)	64 µg/mL (≈ 138 µM)	N#CCN(CC#N)C(=O)CN1CCN(c2ncnc3c2ncn3CC(=O)c2nccs2)CC1	> 256 µg/mL
128 µg/mL (≈ 295 µM)	64 µg/mL (≈ 148 µM)	16 µg/mL (≈ 36.9 µM)	64 µg/mL (≈ 148 µM)	64 µg/mL (≈ 148 µM)	Cc1ccc(CN2CCN(c3ncnc4c3ncn4CC(=O)c3nccs3)CC2)cc1	> 256 µg/mL
16 µg/mL (≈ 38.7 µM)	4 µg/mL (≈ 9.67 µM)	4 µg/mL (≈ 9.67 µM)	128 µg/mL (≈ 310 µM)	32 µg/mL (≈ 77.4 µM)	CCCCCCN1CCN(c2ncnc3c2ncn3CC(=O)c2nccs2)CC1	> 256 µg/mL
256 µg/mL (≈ 440 µM)	128 µg/mL (≈ 220 µM)	2 µg/mL (≈ 3.44 µM)	32 µg/mL (≈ 55 µM)	64 µg/mL (≈ 110 µM)	CCCCCCCCCCCCCCCCCCN1CCN(c2ncnc3c2ncn3CC(=O)c2nccs2)CC1	> 256 µg/mL
256 µg/mL (≈ 465 µM)	16 µg/mL (≈ 29.1 µM)	8 µg/mL (≈ 14.5 µM)	32 µg/mL (≈ 58.1 µM)	16 µg/mL (≈ 29.1 µM)	O=C(Cn1cnc2c(N3CCN(CC(=O)N(C4CCCCC4)C4CCCCC4)CC3)ncnc21)c1nccs1	> 256 µg/mL
256 µg/mL (≈ 585 µM)	256 µg/mL (≈ 585 µM)	32 µg/mL (≈ 73.1 µM)	32 µg/mL (≈ 73.1 µM)	64 µg/mL (≈ 146 µM)	O=C(Cn1cnc2c(N3CCN(Cc4ccc(F)cc4)CC3)ncnc21)c1nccs1	> 256 µg/mL
16 µg/mL (≈ 34 µM)	32 µg/mL (≈ 68 µM)	4 µg/mL (≈ 8.5 µM)	32 µg/mL (≈ 68 µM)	8 µg/mL (≈ 17 µM)	CC(C)N(C(=O)CN1CCN(c2ncnc3c2ncn3CC(=O)c2nccs2)CC1)C(C)C	> 256 µg/mL
16 µg/mL (≈ 32.1 µM)	8 µg/mL (≈ 16.1 µM)	4 µg/mL (≈ 8.04 µM)	16 µg/mL (≈ 32.1 µM)	8 µg/mL (≈ 16.1 µM)	CCCCCCCCCCCCN1CCN(c2ncnc3c2ncn3CC(=O)c2nccs2)CC1	> 256 µg/mL
